Reference: patent US6043263A, “(2,3-dihydrobenzofuranyl)-thiazoles as phosphodiesterase inhibitors” (Byk Gulden Lomberg Chemische Fabrik GmbH, priority 1996, dated 2000)
Where a name gives a salt, the structure may show the parent alone.

test system: PDE IV; assay: Inhibition of PDE IV activity; format: biochemical; settings: method of Bauer and Schwabe adapted to microtiter plates
Description: The activity test was carried out according to the method of Bauer and Schwabe, which was adapted to microtiter plates (Naunyn-Schmiedeberg's Arch. Pharmacol. 311, 193-198, 1980). In this test, the PDE reaction takes place in the first step. In a second step, the charged 5'-nucleotide is cleaved to give the uncharge nucleoside by a 5'-nucleotidase of the snake veno of Ophiophagus hannah (king cobra). In the third step, the nucleoside is separated from the remaining charged substrate on ion exchange columns. The columns are eluted directly into minivials using 2 ml of 30 mM ammonium formate (pH 6.0) to which a further 2 ml of scintillator fluid is added for counting.
The inhibitory values determined for the compounds according to the invention result from Table 1 which follows, in which the numbers of the compounds correspond to the numbers of the examples.

SMILES	-log IC50
COc1ccc(-c2csc(-c3ccncc3)n2)c2c1OC1(CCCC1)C2 [Compound 2, 4-[4-(2,3-Dihydro-7-methoxybenzofuran-2-spiro-1'-cyclopentan-4-yl)thiazol-2-yl]pyridine]	7.25
COc1ccc(-c2csc(-c3cccnc3)n2)c2c1OC1(CCCC1)C2 [Compound 1, 3-[4-(2,3-Dihydro-7-methoxybenzofuran-2-spiro-1'-cyclopentan-4-yl)thiazol-2-yl]pyridine]	7.74
COc1ccc(-c2csc(-c3ccnc(C(=O)O)c3)n2)c2c1OC1(CCCC1)C2 [Compound 4, 4-[4-(2,3-Dihydro-7-methoxybenzofuran-2-spiro-1'-cyclopentan-4-yl)thiazol-2-yl]pyridine-2-carboxylic acid semihydrochloride]	6.85
CCOC(=O)c1cc(-c2nc(-c3ccc(OC)c4c3CC3(CCCC3)O4)cs2)ccn1 [Compound 3, Ethyl 4-[4-(2,3-Dihydro-7-methoxybenzofuran-2-spiro-1'-cyclopentan-4-yl)thiazol-2-yl]pyridine-2-carboxylate]	7.22
COc1ccc(-c2csc(-c3cccc(C(=O)O)c3)n2)c2c1OC1(CCCC1)C2 [Compound 5, 3-[4-(2,3-Dihydro-7-methoxybenzofuran-2-spiro-1'-cyclopentan-4-yl)thiazol-2-yl]benzoic acid]	7.79
